Results published in ChEMBL document CHEMBL1137199, “Estrogen receptor ligands. Part 8: Dihydrobenzoxathiin SERAMs with heteroatom-substituted side chains” (Bioorg Med Chem Lett, 2004).

Tests used:
Estrogen receptor = molecular target: T1, Estrogen receptor (Homo sapiens, UniProt P03372)
T1 sequence (P03372 whole entry): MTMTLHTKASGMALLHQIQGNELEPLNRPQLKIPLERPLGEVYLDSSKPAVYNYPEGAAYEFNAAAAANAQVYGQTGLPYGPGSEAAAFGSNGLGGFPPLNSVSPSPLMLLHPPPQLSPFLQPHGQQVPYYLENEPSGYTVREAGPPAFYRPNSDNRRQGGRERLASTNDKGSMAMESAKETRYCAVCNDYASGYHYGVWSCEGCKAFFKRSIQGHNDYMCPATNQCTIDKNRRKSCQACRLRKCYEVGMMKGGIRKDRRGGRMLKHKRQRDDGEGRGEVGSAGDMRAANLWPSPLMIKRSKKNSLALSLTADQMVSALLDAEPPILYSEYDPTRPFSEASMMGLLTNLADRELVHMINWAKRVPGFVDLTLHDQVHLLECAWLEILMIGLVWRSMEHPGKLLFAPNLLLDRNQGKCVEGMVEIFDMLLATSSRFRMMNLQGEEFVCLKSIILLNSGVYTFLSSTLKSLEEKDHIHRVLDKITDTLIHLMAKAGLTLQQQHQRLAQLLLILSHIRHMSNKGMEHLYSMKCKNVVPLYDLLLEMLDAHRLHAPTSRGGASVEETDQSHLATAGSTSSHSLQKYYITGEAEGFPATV

Estrogen receptor beta = Estrogen receptor beta (Homo sapiens, UniProt Q92731)
Estrogen receptor beta, sequence (Q92731 whole entry): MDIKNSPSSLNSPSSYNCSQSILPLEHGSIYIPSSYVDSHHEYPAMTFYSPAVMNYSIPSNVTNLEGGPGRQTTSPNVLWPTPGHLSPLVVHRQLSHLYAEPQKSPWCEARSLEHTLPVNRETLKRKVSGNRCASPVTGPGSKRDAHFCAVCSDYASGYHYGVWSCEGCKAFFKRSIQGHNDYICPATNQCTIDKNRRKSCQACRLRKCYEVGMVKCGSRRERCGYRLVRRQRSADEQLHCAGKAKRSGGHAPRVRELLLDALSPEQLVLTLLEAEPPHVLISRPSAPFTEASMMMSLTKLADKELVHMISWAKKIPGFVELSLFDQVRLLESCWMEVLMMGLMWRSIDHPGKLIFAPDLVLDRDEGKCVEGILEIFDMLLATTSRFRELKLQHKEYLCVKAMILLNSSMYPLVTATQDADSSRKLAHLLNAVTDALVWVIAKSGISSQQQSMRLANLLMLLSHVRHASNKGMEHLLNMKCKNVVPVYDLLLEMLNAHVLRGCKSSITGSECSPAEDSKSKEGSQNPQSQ

MCF7 = assay: cells; conditions: Homo sapiens

| IC50 (Estrogen receptor) [nM] | IC50 (Estrogen receptor beta) [nM] | IC50 (MCF7) [nM] | Compound |
| --- | --- | --- | --- |
| 2.2 | 366 | 21 | NC(=O)C1CCN(CCOc2ccc([C@@H]3Oc4ccc(O)cc4S[C@@H]3c3ccc(O)cc3)cc2)CC1 |
| 2.5 | 116 | – | Oc1ccc([C@H]2Sc3cc(O)ccc3O[C@H]2c2ccc(OCCN3CCC(F)CC3)cc2)cc1 |
| 2.2 | 436 | 11.3 | OCC1CCN(CCOc2ccc([C@@H]3Oc4ccc(O)cc4S[C@@H]3c3ccc(O)cc3)cc2)CC1 |
| 3.9 | 81 | 1.9 | OC[C@@H]1CCCN1CCOc1ccc([C@@H]2Oc3ccc(O)cc3S[C@@H]2c2ccc(O)cc2)cc1 |
| 1.8 | 331 | 7.5 | Oc1ccc([C@H]2Sc3cc(O)ccc3O[C@H]2c2ccc(OCCN3CCC(O)CC3)cc2)cc1 |
| 0.5 | 59 | 3.8 | Oc1ccc([C@H]2Sc3cc(O)ccc3O[C@H]2c2ccc(OCCN3CC[C@@H](F)C3)cc2)cc1 |
| 7.3 | 1110 | 42.5 | OCCC1CCN(CCOc2ccc([C@@H]3Oc4ccc(O)cc4S[C@@H]3c3ccc(O)cc3)cc2)CC1 |
| 2 | 134 | 3.2 | OC[C@H]1CCCN1CCOc1ccc([C@@H]2Oc3ccc(O)cc3S[C@@H]2c2ccc(O)cc2)cc1 |
| 1.7 | 81 | 0.6 | Oc1ccc([C@H]2Sc3cc(O)ccc3O[C@H]2c2ccc(OCCN3CC[C@@H](O)C3)cc2)cc1 |
| 2 | 267 | 42.3 | Oc1ccc([C@H]2Sc3cc(O)ccc3O[C@H]2c2ccc(OCCN3CCC4(CC3)OCCO4)cc2)cc1 |
| 16 | 275 | 42 | Oc1ccc([C@H]2Sc3cc(O)ccc3O[C@H]2c2ccc(OCCN3CCC(F)(F)CC3)cc2)cc1 |

| Compound | IC50 (Estrogen receptor) [nM] | IC50 (Estrogen receptor beta) [nM] | IC50 (MCF7) [nM] |
| --- | --- | --- | --- |
| Oc1ccc([C@H]2Sc3cc(O)ccc3O[C@H]2c2ccc(OCCN3CCSCC3)cc2)cc1 | 1.5 | 72 | 15.6 |
| O=S1(=O)CCN(CCOc2ccc([C@@H]3Oc4ccc(O)cc4S[C@@H]3c3ccc(O)cc3)cc2)CC1 | 2 | 247 | 26.3 |
